{"source": "patent US20050049220A1", "about": "“Dosing regimen for Flaviviridae therapy” (priority 2003, published 2005)", "key": {"HCV replicon RNA [1]": {"tested_on": "HCV replicon RNA", "experiment": "Replicon RNA copy number per cell", "assay_type": "cell-based, hepatitis C virus (HCV)", "conditions": "for change in replicon RNA copy number per cell (words): 7-day period, treated versus no-treatment controls", "procedure": "FIG. 4 is a graphical depiction of the log10 changes for replicon RNA levels per cell. The plots were obtained from data collected in FIGS. 2 and 3, in which log10 changes for cell count and replicon RNA levels were subtracted from each other. A. Control antiviral compounds. ●: no drug control; ▾: IFN-α-2a at 100 IU/ml; ▪: ribavirin at 100 μM. B. Selection of the most important anti-metabolites. ●: no drug control; ▾: dFdC at 50 nM; ▪: CP-C at 25 μM; ♦: CPE-C at 2.5 μM; ▴: PALA at 10 μM; ●: PZF at 5 μM.\nTo express the specificity of the antiviral action of the control compounds versus the anti-metabolites, the log10 change in replicon RNA copy number per cell and per day was calculated from the above experiments."}, "HCV replicon": {"tested_on": "HCV replicon", "experiment": "HCV replicon assay: HCV RNA by Q-RT-PCR, 4 days exposure", "assay_type": "cell-based, hepatitis C virus (HCV)", "conditions": "for log reduction at 10 µM: read-out: Corrected HCV RNA log10 reduction at 10 μM; for EC90: read-out: Corrected HCV RNA EC90", "procedure": "Antiviral screening assays can be done in the same media without G418 as follows: in order to keep cells in logarithmic growth phase, seed cells in a 96-well plate at low density, for example 1000 cells per well. Add the test compound immediate after seeding the cells and incubate for a period of 3 to 7 days at 37° C. in an incubator. Media is then removed, and the cells are prepared for total nucleic acid extraction (including replicon RNA and host RNA). Replicon RNA can then be amplified in a Q-RT-PCR protocol, and quantified accordingly. […] This value is called DeltaCt (ΔCt or DCt).\nThis value is called DeltaCt (ΔCt or dCt)."}, "[2]": {"tested_on": "HCV replicon cells (Huh-7)", "experiment": "7-day cell growth dynamics, trypan-blue cell count", "conditions": "for effect on cell proliferation: 7-day period, at 96 h EC90 value (ribavirin 100 μM, IFN 100 IU/ml)", "procedure": "FIG. 2 is a graphical depiction of the dynamics of cell growth and HCV RNA levels after exposure to control anti-HCV compounds. HCV replicon cells were seeded at approximately 10^4 cells per well in a 24-well plate. Over a 7-day period, cells were counted daily, and rRNA and HCV RNA were quantified by Q-RT-PCR. A: IFN-α-2a at 100 IU/ml; B: ribavirin at 100 μM. ●: cell proliferation in absence of compound; ◯: cell proliferation in presence of compound; ▾: HCV RNA levels in untreated cells; ∇: HCV RNA levels in the presence of compound. The curves shown are averages of 3 independent experiments.\nTherefore, experiments were conducted to monitor HCV RNA levels and the cell growth dynamics over a 7-day period.\nThe dynamics of HCV replicon cells exposed to these inhibitors (at their EC90 value) was monitored over a 7-day period."}, "HCV": {"tested_on": "HCV", "conditions": "cited from earlier work"}, "HCV replicon cells": {"tested_on": "HCV replicon cells", "experiment": "Prevention studies with natural ribo- or 2′-deoxy nucleosides", "assay_type": "cell-based, human", "conditions": "test compound at 96 h EC90 value; nucleosides at 50 μM"}, "HCV replicon RNA [3]": {"tested_on": "HCV replicon RNA", "experiment": "7-day dynamics of HCV RNA levels", "assay_type": "cell-based, hepatitis C virus (HCV)", "conditions": "for effect on HCV RNA levels: 7-day period, at 96 h EC90 value (IFN 100 IU/ml)"}, "Huh-7 cells": {"tested_on": "Huh-7 cells", "experiment": "Cellular rRNA levels / cytotoxicity in HCV replicon cells", "conditions": "100 μM; 4 days; HCV replicon transfected Huh-7 cells", "from_the_text": "In a typical setting, a compound might reduce both the host RNA polymerase activity and the replicon-encoded polymerase activity. Therefore, quantification of rRNA (or any other host RNA polymerase I product) or beta-actin mRNA (or any other host RNA polymerase II) and comparison with RNA levels of the no-drug control is a relative measurement of the effect of the test compound on host RNA polymerases.\nWith the availability of both the HCV ΔCt data and the rRNA ΔCt, a specificity parameter can be introduced. This parameter is obtained by subtracting both ΔCt values from each other.\nIFN-α-2a and ribavirin were tested over a range of concentrations for their ability to reduce the HCV RNA levels in exponentially growing replicon cells after 4 days of exposure as described (Stuyver, L. et al. “A ribonucleoside analogue that blocks the replication of bovine viral diarrhea and hepatitis C viruses in culture” Antimicrob. Agents Chemother. 2003, 47, 244-254).\nGemcitabine was dissolved in DMSO and added to the culture media of a cellular model system of Huh7 cells harboring self-replicating HCV RNA, at final concentrations ranging from […]. In such experiments, one way to express the antiviral effectiveness of a compound is to subtract the threshold reverse-transcriptase polymerase chain reactions (RT-PCR) cycle of the test compound with the average threshold RT-PCR cycle of the negative control. This value is called DeltaCt (ΔCt or dCt). With the availability of both the HCV ΔCt data and the rRNA ΔCt, a specificity parameter can be introduced. This parameter is obtained by subtracting both ΔCt values from each other."}, "[4]": {"conditions": "Hepatitis C virus, 96 h, 100 μM, 4 days, HCV replicon transfected Huh-7 cells, read-out: log10 RNA reduction at 100 μM, HCV"}}, "note": "Like-named read-outs stand apart in the source and are kept apart here."}
{"compound": "NC(=O)c1ncn([C@@H]2O[C@H](CO)[C@@H](O)[C@H]2O)n1", "note": "[Ribavirin, 1-β-D-ribofuranosyl-1-1,2,4-triazole-3-carboxamide]", "values": [{"measurement": "change in replicon RNA copy number per cell (words)", "setting": "HCV replicon RNA [1]", "value": "only minimally"}, {"measurement": "change in replicon RNA copy number per cell (words)", "setting": "HCV replicon RNA [1]; listed as ribavirin", "value": "changed only marginally"}, {"measurement": "log reduction at 10 µM", "setting": "HCV replicon; Hepatitis C virus, 96 h, 10 μM, corrected for rRNA", "value": "0.16 ± 0.1"}, {"measurement": "log reduction at 100 µM", "setting": "HCV replicon; [4]", "value": "1.96 ± 0.28"}, {"measurement": "log reduction at 100 µM", "setting": "HCV replicon; Hepatitis C virus, 96 h, 100 μM, corrected for rRNA, read-out: Corrected HCV RNA log10 reduction at 100 μM", "value": "1.05 ± 0.29"}, {"measurement": "EC90", "setting": "HCV replicon; Hepatitis C virus, 96 h incubation", "value": "~100", "unit": "µM"}, {"measurement": "log10 reduction in cell growth at day 7 compared to day 0", "setting": "[2]; 100 μM", "value": "0.22±0.1", "unit": "log10"}, {"measurement": "log10 reduction in cell growth compared to the no treatment control on day 7", "setting": "[2]; 100 μM", "value": 1.53, "unit": "log10"}, {"measurement": "effect on cell proliferation", "setting": "[2]", "value": "completely inhibited cell proliferation"}, {"measurement": "effect on serum levels of HCV-RNA", "setting": "HCV; HCV patients", "value": "does not lower"}, {"measurement": "patients with serum amino transferase levels reduced to normal", "setting": "HCV", "value": 40, "unit": "%"}, {"measurement": "prevention of antiviral and cytostatic effects by natural nucleosides", "setting": "HCV replicon cells", "value": "2′-deoxyguanosine and guanosine prevented the effects"}, {"measurement": "HCV RNA reduction on day 7 compared to untreated controls", "setting": "HCV replicon RNA [3]; 100 μM", "value": 2.08, "unit": "log10"}, {"measurement": "log10 RNA reduction at 100 μM, rRNA", "setting": "Huh-7 cells", "value": "0.91 ± 0.12", "unit": "log10"}]}
{"compound": "NC(=O)c1[nH]nc([C@@H]2O[C@H](CO)[C@@H](O)[C@H]2O)c1O", "note": "[PZF, pyrazofurin]", "values": [{"measurement": "reduction in replicon RNA levels per cell", "setting": "HCV replicon RNA [1]; 5 μM, after 7 days treatment", "value": 2.96, "unit": "log10"}, {"measurement": "change in replicon RNA copy number per cell (words)", "setting": "HCV replicon RNA [1]", "value": "time dependent reduction"}, {"measurement": "EC90", "setting": "HCV replicon; Hepatitis C virus, 96 h", "value": 3.8, "unit": "µM"}, {"measurement": "log reduction at 10 µM", "setting": "HCV replicon; Hepatitis C virus, 96 h", "value": "1.16 ± 0.21"}, {"measurement": "log reduction at 100 µM", "setting": "HCV replicon; Hepatitis C virus, 96 h, read-out: Corrected HCV RNA log10 reduction at 100 μM", "value": "1.46 ± 0.08"}, {"measurement": "log reduction at 100 µM", "setting": "HCV replicon; [4]", "value": "1.88 ± 0.05"}, {"measurement": "effect on cell proliferation", "setting": "[2]", "value": "reduced cell proliferation only minimally"}, {"measurement": "prevention of antiviral and cytostatic effects by natural nucleosides", "setting": "HCV replicon cells", "value": "prevented by addition of uridine"}, {"measurement": "effect on HCV RNA levels", "setting": "HCV replicon RNA [3]", "value": "significantly reduced HCV RNA levels"}, {"measurement": "log10 RNA reduction at 100 μM, rRNA", "setting": "Huh-7 cells", "value": "0.42 ± 0.03", "unit": "log10"}]}
{"compound": "Cyclopentylcytosine [CP-C]", "values": [{"measurement": "change in replicon RNA copy number per cell (words)", "setting": "HCV replicon RNA [1]", "value": "profile similar to that seen for IFN-α-2a"}, {"measurement": "Corrected HCV RNA log10 reduction at 10 μM", "setting": "HCV replicon; 10 μM, corrected for rRNA", "value": "0.64 ± 0.10", "unit": "log10"}, {"measurement": "log10 RNA reduction at 100 μM, HCV", "setting": "HCV replicon; 100 μM, 4 days, HCV replicon transfected Huh-7 cells", "value": "1.97 ± 0.38", "unit": "log10"}, {"measurement": "Corrected HCV RNA log10 reduction at 100 μM", "setting": "HCV replicon; 100 μM, corrected for rRNA", "value": "1.06 ± 0.26", "unit": "log10"}, {"measurement": "EC90", "setting": "HCV replicon; 96 h incubation", "value": 25, "unit": "µM"}, {"measurement": "effect on cell proliferation", "setting": "[2]", "value": "cytostatic effects"}, {"measurement": "prevention of antiviral and cytostatic effects by natural nucleosides", "setting": "HCV replicon cells", "value": "addition of cytidine to the culture medium compensated for the inhibitory effects"}, {"measurement": "effect on HCV RNA levels", "setting": "HCV replicon RNA [3]", "value": "reduced HCV-replicon RNA levels"}, {"measurement": "log10 RNA reduction at 100 μM, rRNA", "setting": "Huh-7 cells", "value": "0.91 ± 0.13", "unit": "log10"}]}
